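Cells were grown in 96-well plates and exposed to each compound for 48 hours at five concentrations; endpoints were interpolated linearly between bracketing concentrations, or set to the highest concentration if not reached. At the GI50, growth is halved. At the TGI there is no net growth.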
Columns and labels:
Test in all cases: NCI anticancer screen, dose series, 48 h
[1] = tested on: NCI-H522 lung
[2] = tested on: UO-31 renal
[3] = tested on: HCT-116 colon
[4] = tested on: MDA-MB-435
[5] = tested on: SF-539 CNS
[6] = tested on: SR leukemia
[7] = tested on: BT-549 breast
[8] = tested on: COLO 205 colon
[9] = tested on: OVCAR-5 ovarian
[10] = tested on: UACC-257 melanoma

Structure (SMILES)	GI50 [1] [µM]	TGI [1] [µM]	GI50 [2] [µM]	TGI [2] [µM]	GI50 [3] [µM]	TGI [3] [µM]	GI50 [4] [µM]	TGI [4] [µM]	GI50 [5] [µM]	TGI [5] [µM]	GI50 [6] [µM]	TGI [6] [µM]	GI50 [7] [µM]	TGI [7] [µM]	GI50 [8] [µM]	TGI [8] [µM]	GI50 [9] [µM]	TGI [9] [µM]	GI50 [10] [µM]	TGI [10] [µM]
CC(C)=Cc1cc(C)c2ccc(C)c3c2c1C(C)=C(O)C3=O	19.8	46.4	23.5	> 100	17.7	34.8	27.5	73.7	32	79.5	1.46	4.17	28.7	89.5	17.1	41.6	18.7	43.1	39.5	> 100
O=C1NC(=O)C(=Cc2cn(Cc3ccccc3)c3ccccc23)C(=O)N1	13.1	37.2	12	31	11.7	27.5	17.9	42.3	34.3	> 100	10.6	30.5	15.4	50.1	1.13	9.44	0.332	2.15	7.07	35.1
CCc1ccc2oc(=O)ccc2c1		> 100		> 100		> 100		> 100		> 100		> 100		> 100		> 100		> 100		> 100
CCC[CH2][Sn]([CH2]CCC)([CH2]CCC)/[C](=C/[Si](C)(C)c1ccccc1)c1ccc2c(c1)OCO2	9.71	> 100	18.6	33.6	17.9	41	15.7	31.3	36	> 100	8.61	63.9	19.1	44.3	18.7	39	19	44	22.4	58.7
C1CSC[C@H]2COC[C@@H](CSCCS1)S2		> 100		> 100		> 100		> 100		> 100		> 100		> 100		> 100		> 100		> 100
O=C1OCC2=C1C(c1cccc(C(F)(F)F)c1)c1cc3c(cc1N2CCO)OCCO3 (stereo not drawn)	0.488	2.89	1.95	> 33.3	1.42	> 33.3			0.849	3.11	1.04	> 33.3	1.81	> 33.3	0.868	2.48	1.75	> 33.3	> 33.3	> 33.3

From PubChem BioAssay (NCI)
